The values below come from patent US20240344103A1, “IN VITRO MODELS FOR ESTIMATING DRUG DOSAGE” (Hennepin Healthcare Research Institute, priority 2021, published 2024).

In one data set the test system is Gut Microbiota. The conditions noted are these: cited from earlier work.
The subject of data set [1] is stool microbiota. Description: In vitro anaerobic culture of patient stool microbiome with MPA or MPAG, HPLC-MS/MS of supernatant. The data set is classed as in vitro ADME, human. The conditions noted are these: stool frozen at −80° C. for mean 312 days, thawed at 4° C. overnight, assay at 37° C.; six and 24 hours.
In data set [2] the test system is stool microbiota. The description is as above. The data set is classed as in vitro ADME, human. Here is the method: A human microbiome sample from stool was collected from a patient between days 15-45 post-transplant, during their 12-hour pharmacokinetic visit. Prior to the initiation of the culture of microbiome stool sample, in the MPA arm of the experiment, a 1 mg/mL stock solution of MPA was diluted to […] in thirteen anaerobic culture tubes by adding 0.7 mL of the stock MPA solution to 6.3 mL of YCFA (Yeast extract-Casein hydrolysate-fatty acids) medium broth. Likewise, for the MPAG arm of the experiment, a […] stock solution of MPAG was diluted to […] in thirteen anaerobic culture tubes by adding 0.7 mL of the stock MPAG solution to 6.3 mL of YCFA (Yeast extract-Casein hydrolysate-fatty acids) medium broth.
Stool aliquots of ˜0.5 g were incubated in separate YCFA tubes containing MPA or MPAG for six hours, 24 hours, or 48 hours in separate tubes, at 37° C. under anaerobic conditions (FIG. 2). All aliquots were collected at each timepoint in triplicate. Aliquots were also collected from MPA and MPAG tubes without any stool samples at zero, six hours, 24 hours, and 48 hours to serve as controls for this experiment.
After incubation, samples were […] at 16,000×g for 10 minutes, and the supernatant was collected and stored at −80° C. prior to high performance liquid chromatography-tandem mass spectrometry (HPLC-MS/MS) analysis. The supernatant was assessed for the presence and concentration of total MPA and MPAG using a validated mass spectrometry assay. Total MPA and MPAG concentration were determined based on certified analytical reference standards of […] of MPA and MPAG. These analytical reference standards were used as internal standards during the mass spectrometry assay.

Data set [3] can be described thus: 12-hour MPA pharmacokinetic profile in kidney transplant patients taking MMF. The data set is classed as in vivo, human. The following applies: five kidney transplant participants on MMF. The protocol: The following example used a stool sample of a kidney transplant patient who was on a steady state dose of 1 gram of mycophenolate mofetil (MMF) twice a day (FIG. 1). This patient underwent intensive pharmacokinetic sampling over 12 hours to assess enterohepatic recirculation (EHR) carefully and accurately. Once participants reach a steady state dose between days 15-45 post-transplant, fourteen blood samples were obtained at the time the morning MMF does was administered and at 30 minutes, one hour, two hours, three hours, four hours, five hours, six hours, seven hours, eight hours, nine hours, ten hours, 11 hours, and 12 hours following the morning MMF dose. The sampling strategy assured capture of the secondary peak and EHR characteristics.
Five kidney transplant recipients taking MMF and tacrolimus as maintenance immunosuppression had their six-hour MPA levels assessed in the in vitro assay exposing microbiome to MPAG (FIG. 5). These patients also underwent an extensive 12-hour MPA pharmacokinetic (PK) profile (FIG. 6), and the stool samples were collected at the time of the PK profile. The percent EHR in these kidney transplant recipients was defined as [MPA AUC6-12 hour]/[AUC0-12 hour]×100 as a measure of their in vivo EHR. The correlation coefficient between the six-hour MPA level from the in vitro model with percentage EHR was 0.82 (95% CI—0.21 to 0.98, P=0.08).

Setting [4] is: effect of gut microbiome on the compound.

“Also recorded” adds a separate entry of the source. Read-outs that look alike come from different tables or passages of the source.

Regarding `CC1=C(CC(=O)O)c2cc(F)ccc2/C1=C\c1ccc([S+](C)[O-])cc1` (stereo not shown) [Sulindac], the “Effect of microbial modification” value with Gut Microbiota (setting [4]) was “Toxicity [2, 4-6]”.

In the case of `NC(=O)c1cc(N2CC2)c([N+](=O)[O-])cc1[N+](=O)[O-]` [CB1954], the “Gut Microbiota Modification” value in the data set with Gut Microbiota was “Improved efficacy”. In the data set with Gut Microbiota (setting [4]), the “Effect of microbial modification” value was “Activation [7]”.

“Ipilimumab: Antil CTLA-4 human monoclonal antibody (Ab) therapeutic drug”: in the data set on Gut Microbiota, the “Effect of microbial modification” value is “Activation [2, 10]”.

For the molecule `Nc1ccn([C@@H]2O[C@H](CO)[C@@H](O)C2(F)F)c(=O)n1` [Gemcitabine], the “Gut Microbiota Modification” value in the data set with Gut Microbiota is reported as “Inhibited efficacy”. Also, the “Effect of microbial modification” value in the data set on Gut Microbiota (setting [4]) was “Inactivation[7]”.

For `COc1c(C)c2c(c(O)c1C/C=C(\C)CCC(=O)OCCN1CCOCC1)C(=O)OC2` [Mycophenolate Mofetil (MMF), mycophenolate mofetil], the “Effect of microbial modification” value in the data set with Gut Microbiota (setting [4]) was “Toxicity [4-6]”.

On to `Nc1nc(F)nc2c1ncn2[C@@H]1O[C@H](COP(=O)(O)O)[C@@H](O)[C@@H]1O` [Fludarabine de phosphate], for which the “Gut Microbiota Modification” value in the data set on Gut Microbiota is recorded as “Improved efficacy”. The “Effect of microbial modification” value with Gut Microbiota (setting [4]) is “Activation [7]”.

In the case of `COc1c(C)c2c(c(O[C@@H]3O[C@H](C(=O)O)[C@@H](O)[C@H](O)[C@H]3O)c1C/C=C(\C)CCC(=O)O)C(=O)OC2` [MPAG, mycophenolic acid glucuronide], the “MPAG to MPA conversion in repeat assay” value in the data set with stool microbiota [1] is “showed ability of the stool microbiome sample to metabolism MPAG to MPA as before”. In addition, the “MPAG concentration in the MPA tubes incubated with stool microbiome samples” value in the data set with stool microbiota [2] (MPA arm, MPA to MPAG conversion, six, 24, 48 hours) is “no detectable concentrations”. Moreover, in the data set with stool microbiota [2] (MPAG arm, one patient stool, anaerobic, six hours post incubation), the “MPAG concentration in MPAG tubes incubated with stool microbiome samples” value is “rapid metabolism; also recorded: rapid decrease”. The “MPAG concentration in control aliquots” value in the data set with stool microbiota [2] (MPAG in YCFA without stool, zero, six, 24, 48 hours) is on record as “remained stable”. Also, the “MPAG to MPA conversion by gut microbiota” value in the data set with stool microbiota [2] (stool of five kidney transplant patients, YCFA, anaerobic, first six hours) was “Rapid metabolism; also recorded: high MPAG to MPA conversion”.

With `COc1c(C)c2c(c(O)c1C/C=C(\C)CCC(=O)O)C(=O)OC2` [MPA, mycophenolic acid], the “MPA concentration after incubation with stool bacteria compared to control samples” value in the data set on stool microbiota [2] (MPA arm, one kidney transplant patient stool, YCFA, 37° C., anaerobic, six, 24 and 48 hours, controls without stool) is listed as “did not change; also recorded: no difference was detected”. Further, in the data set with stool microbiota [2] (MPAG arm, one patient stool, 24 and 48 hours), the “MPA concentration relative to amount expected from full MPAG conversion” value was “higher than the amount expected if all MPAG is converted to MPA”. Further, the “MPA concentration in MPAG tubes incubated with stool microbiome samples” value with stool microbiota [2] (MPAG arm, starting at six hours, upward trend at 24 and 48 hours) is on record as “increase”. Besides, the “Release of MPA bioaccumulated in microbiome cells on addition of MPAG” value with stool microbiota [2] (in vitro assay, MPAG substrate added) is “led to the release of MPA that had accumulated inside the cells; also recorded: promotes the release of bioaccumulated MPA”. Besides, in data set [3], the “% EHR (MPA AUC6-12 hour/AUC0-12 hour×100), mean” value was found to be 46% and the “% EHR (MPA AUC6-12 hour/AUC0-12 hour×100), range” value was 41-60%. Besides, the “mean MPA trough” value in data set [3] (SD ±1.66) turned out to be 3.5 mg/L. In addition, the “mean dose normalized MPA AUC0-12” value in data set [3] (±0.02) turned out to be 0.07 mg·h/L.

Regarding `CCc1c2c(nc3ccc(OC(=O)N4CCC(N5CCCCC5)CC4)cc13)-c1cc3c(c(=O)n1C2)COC(=O)[C@]3(O)CC` [Irinotecan], in the data set on Gut Microbiota (setting [4]), the “Effect of microbial modification” value is “Toxicity [1, 2]”.

Turning to `C=CC[C@@H]1/C=C(\C)C[C@H](C)C[C@H](OC)[C@H]2O[C@@](O)(C(=O)C(=O)N3CCCC[C@H]3C(=O)O[C@H](/C(C)=C/[C@@H]3CC[C@@H](O)[C@H](OC)C3)[C@H](C)[C@@H](O)CC1=O)[C@H](C)C[C@@H]2OC` [Tacrolimus], in the data set on Gut Microbiota (setting [4]), the “Effect of microbial modification” value was “Inactivation [8]”.

On to `O=C(O)Cc1ccccc1Nc1c(Cl)cccc1Cl` [Diclofenac], for which the “Effect of microbial modification” value in the data set on Gut Microbiota (setting [4]) is “Toxicity [2, 3]”.

With `CN(C)C(=N)N=C(N)N` [Metformin], the “Effect of microbial modification” value in the data set on Gut Microbiota (setting [4]) was “Activation [2, 11]”.

Consider `Nc1nc(Cl)nc2c1ncn2[C@H]1C[C@H](O)[C@@H](CO)O1` [Cladribine], for which the “Gut Microbiota Modification” value in the data set on Gut Microbiota is given as “Inhibited efficacy”. Besides, the “Effect of microbial modification” value in the data set on Gut Microbiota (setting [4]) was “Inactivation[7]”.
